Assay results reported in ChEMBL document CHEMBL1201862, “PubChem BioAssay data set” (2004).
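The compound was tested at five concentrations on cells cultured in 96-well plates, with a 48-hour exposure period. Abbreviation: GI50, concentration required for 50% inhibition of growth.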 Active and inactive are the calls of the source. Cut-off read from the data, not from the text of the source: active = GI50 up to about 1.1 µM and inactive = higher.

Tests used:
Assay in all cases: inhibition of tumour cell growth, NCI panel, 48 h
[1] = system: 786-0
[2] = system: A498
[3] = system: A549
[4] = system: BT-549
[5] = system: CAKI-1
[6] = system: CCRF-CEM
[7] = system: COLO 205
[8] = system: DU-145
[9] = system: EKVX
[10] = system: HCC 2998
[11] = system: HCT-116
[12] = system: HCT-15
[13] = system: HL-60
[14] = system: HOP-62
[15] = system: HOP-92
[16] = system: HT-29
[17] = system: Hs-578T
[18] = system: IGROV-1
[19] = system: KM12
[20] = system: LOX IMVI
[21] = system: M14
[22] = system: MCF7
[23] = system: MDA-MB-231
[24] = system: MDA-MB-435
[25] = system: MDA-N
[26] = system: MOLT-4
[27] = system: NCI-H226
[28] = system: NCI-H23
[29] = system: NCI-H460
[30] = system: NCI-H522
[31] = system: NCI/ADR-RES
[32] = system: OVCAR-3
[33] = system: OVCAR-5
[34] = system: OVCAR-8
[35] = system: PC-3
[36] = system: RXF 393
[37] = system: SF-268
[38] = system: SF-295
[39] = system: SF-539
[40] = system: SK-MEL-28
[41] = system: SK-MEL-2
[42] = system: SK-MEL-5
[43] = system: SK-OV-3
[44] = system: SN12C
[45] = system: SNB-19
[46] = system: SNB-75
[47] = system: SW-620
[48] = system: T47D
[49] = system: TK-10
[50] = system: U-251
[51] = system: UACC-257
[52] = system: UACC-62
[53] = system: UO-31
[54] = system: ACHN
[55] = system: K562
[56] = system: Malme-3M
[57] = system: OVCAR-4
[58] = system: SR

## COc1ccc2nc3cc(Cl)ccc3c(NCCCN3CCN(CCCNc4ccc5nnn6c7ccccc7c(=O)c4c56)CC3)c2c1
[1]
  GI50: 0.646 µM (active)
[2]
  GI50: > 25 µM (inactive)
[3]
  GI50: 0.172 µM (active)
[4]
  GI50: 5.24 µM (inactive)
[5]
  GI50: > 5.62 µM (inactive)
[6]
  GI50: 0.17 µM (active)
[7]
  GI50: 0.923 µM (active)
[8]
  GI50: > 25 µM (inactive)
[9]
  GI50: > 17 µM (inactive)
[10]
  GI50: 0.303 µM (active)
[11]
  GI50: 0.0191 µM (active)
[12]
  GI50: 0.179 µM
[13]
  GI50: 1.14 µM (inactive)
[14]
  GI50: > 25 µM (inactive)
[15]
  GI50: > 25 µM (inactive)
[16]
  GI50: 0.0251 µM (active)
[17]
  GI50: > 25 µM (inactive)
[18]
  GI50: 0.309 µM (active)
[19]
  GI50: 0.277 µM (active)
[20]
  GI50: 0.512 µM (active)
[21]
  GI50: > 25 µM (inactive)
[22]
  GI50: 0.225 µM (active)
[23]
  GI50: 6.32 µM (inactive)
[24]
  GI50: 3.25 µM (inactive)
[25]
  GI50: 1.65 µM (inactive)
[26]
  GI50: 0.0743 µM (active)
[27]
  GI50: > 25 µM (inactive)
[28]
  GI50: 19.5 µM (inactive)
[29]
  GI50: 0.0995 µM (active)
[30]
  GI50: 0.391 µM (active)
[31]
  GI50: 4.89 µM (inactive)
[32]
  GI50: > 25 µM (inactive)
[33]
  GI50: > 21.2 µM (inactive)
[34]
  GI50: 1.42 µM (inactive)
[35]
  GI50: > 6.01 µM (inactive)
[36]
  GI50: 0.948 µM (active)
[37]
  GI50: > 7.36 µM (inactive)
[38]
  GI50: 2.37 µM (inactive)
[39]
  GI50: 0.21 µM (active)
[40]
  GI50: > 25 µM (inactive)
[41]
  GI50: > 25 µM (inactive)
[42]
  GI50: > 25 µM (inactive)
[43]
  GI50: > 25 µM (inactive)
[44]
  GI50: 1.81 µM (inactive)
[45]
  GI50: > 25 µM (inactive)
[46]
  GI50: > 25 µM (inactive)
[47]
  GI50: 0.0458 µM (active)
[48]
  GI50: > 25 µM (inactive)
[49]
  GI50: > 10.3 µM (inactive)
[50]
  GI50: 1.32 µM (inactive)
[51]
  GI50: 2.51 µM (inactive)
[52]
  GI50: > 25 µM (inactive)
[53]
  GI50: > 7.5 µM (inactive)

## CCOC(=O)n1c2ccccc2c(=O)n1CCO
[1]
  GI50: > 100 µM (inactive)
[2]
  GI50: > 100 µM (inactive)
[3]
  GI50: > 100 µM (inactive)
[54]
  GI50: > 100 µM (inactive)
[4]
  GI50: > 100 µM (inactive)
[5]
  GI50: > 100 µM (inactive)
[6]
  GI50: > 100 µM (inactive)
[7]
  GI50: > 100 µM (inactive)
[8]
  GI50: > 100 µM (inactive)
[9]
  GI50: > 100 µM (inactive)
[10]
  GI50: > 100 µM (inactive)
[11]
  GI50: > 100 µM (inactive)
[12]
  GI50: > 100 µM
[13]
  GI50: > 100 µM (inactive)
[14]
  GI50: > 100 µM (inactive)
[16]
  GI50: > 100 µM (inactive)
[17]
  GI50: > 100 µM (inactive)
[18]
  GI50: > 100 µM (inactive)
[55]
  GI50: > 100 µM (inactive)
[19]
  GI50: > 100 µM (inactive)
[21]
  GI50: > 100 µM (inactive)
[22]
  GI50: > 100 µM (inactive)
[23]
  GI50: > 100 µM (inactive)
[25]
  GI50: > 100 µM (inactive)
[26]
  GI50: > 100 µM (inactive)
[56]
  GI50: > 100 µM (inactive)
[27]
  GI50: > 100 µM (inactive)
[28]
  GI50: > 100 µM (inactive)
[29]
  GI50: > 100 µM (inactive)
[30]
  GI50: > 100 µM (inactive)
[31]
  GI50: > 100 µM (inactive)
[32]
  GI50: > 100 µM (inactive)
[57]
  GI50: > 100 µM (inactive)
[33]
  GI50: > 100 µM (inactive)
[34]
  GI50: > 100 µM (inactive)
[35]
  GI50: > 100 µM (inactive)
[36]
  GI50: 24.2 µM (inactive)
[37]
  GI50: > 100 µM (inactive)
[38]
  GI50: > 100 µM (inactive)
[39]
  GI50: > 100 µM (inactive)
[40]
  GI50: > 100 µM (inactive)
[41]
  GI50: > 100 µM (inactive)
[42]
  GI50: > 100 µM (inactive)
[43]
  GI50: > 100 µM (inactive)
[44]
  GI50: > 100 µM (inactive)
[45]
  GI50: > 100 µM (inactive)
[46]
  GI50: 28.8 µM (inactive)
[58]
  GI50: > 100 µM (inactive)
[47]
  GI50: > 100 µM (inactive)
[48]
  GI50: 7.45 µM (inactive)
[49]
  GI50: > 100 µM (inactive)
[50]
  GI50: > 100 µM (inactive)
[51]
  GI50: > 100 µM (inactive)
[52]
  GI50: > 100 µM (inactive)
[53]
  GI50: > 100 µM (inactive)
